Measurements as given in US11357743B2, “Ketamine and propofol admixture” (Mayo Foundation for Medical Education and Research, priority 2017, dated 2022).

Assays:
[1] = Nursing and patient assessment surveys after induction of general anesthesia with propofol or ketofol (randomized, double-blinded controlled trial)
Description: 85 patients of ASA Class 1-2 scheduled for surgical procedures that involved general anesthesia were assigned to one of two arms, one involving induction with propofol and the other involving induction with “ketofol” (a ketamine/propofol combination) in a randomized, double-blinded controlled trial. Patients were placed on standard ASA monitors including a BIS monitor and a noninvasive cardiac output monitor (NICOM) prior to induction of general anesthesia.
One minute before induction, baseline hemodynamics were recorded with standard ASA monitors as well as with the NICOM. Providers were given one 20 ml syringe and one 10 ml syringe for rescue if needed. As part of the induction, fentanyl (1-2 mcg/kg) and any relaxant excluding succinylcholine and pancuronium was given. The 20 ml syringe in both groups looked identical, appeared to be propofol but depending on the group they were randomized to, it represented either 2 mg/kg of propofol (propofol group) or 0.75 mg/kg of ketamine and 1.5 mg/kg of propofol (“ketofol” group). The 10 ml rescue syringe, if used, represented 1 mg/kg of propofol (propofol group) or 0.25 mg/kg of ketamine and 0.5 mg/kg of propofol (“ketofol” group). Hemodynamics were recorded every minute for a total of 30 minutes post-induction. During this time, anesthesia was maintained with any volatile agent excluding nitrous oxide. […] Patients were given survey questions that centered on emergence, discharge times, pain control, and nausea/vomiting. In addition, nurses were also asked to fill out a survey which dealt with similar questions.

[2] = Ketofol vs etomidate for emergent endotracheal intubation in critically ill patients (randomized clinical trial); type: in vivo, human; conditions: share of group
[3] = Likert scaled responses from 0 (strongly disagree) to 7 (strongly agree)
[4] = Likert scaled responses from 0 (very poorly) to 7 (perfectly)

SMILES	Patient Assessment: Emergence (woke up well), Mean [1, 3]	Patient Assessment: No PONV, Mean [1, 3]	Patient Assessment: No Pain, Mean [1, 3]	Nursing Assessment: Discharge (from unit), Mean [1, 4]	Nursing Assessment: Emergence (wake up), Mean [1, 4]	Nursing Assessment: Protection from PONV, Mean ([1]; Likert scaled responses from 0 (very poorly) to 7 (perfectly), PONV = post-operative nausea/vomiting)	Serious adverse events reported [2]
CC(C)c1cccc(C(C)C)c1O [Propofol, 2,6-diisopropylphenol]	5.5	5.5	3.8	5.1	5.4	5.5	
CCOC(=O)c1cncn1[C@H](C)c1ccccc1 [etomidate]							5%
